Reference: patent US5096902A, “Heterocyclic compounds containing nitrogen and sulfur, pharmaceutical compositions containing them and process for preparing same” (Richter Gedeon Vegyeszeti Gyar Rt., priority 1989, dated 1992)
Where two headings read alike, the source gives them in different places.

Experiments:
conscious mice = assay: Normobaric hypoxia test (96% nitrogen / 4% oxygen) in conscious mice; type: in vivo; settings: 50 mg/kg i.p.; for Survival time / response vs control in vivo at 50 mg/kg: 30 min before; for Survival time: three series with controls 6.32, 5.78 and 3.05 min; for response vs control in vivo at 50 mg/kg / responders at 50 mg/kg: Mus musculus, ip; for response vs control in vivo at 50 mg/kg: control = 100, read-out: Survival time, % (relative to control group); for responders at 50 mg/kg: protected = survival twice as long as control group, read-out: Protection
Excerpt: The antihypoxic activity was investigated on conscious mice under normobaric hypoxia. Five male mice each were placed in a glass cylinder of 3 liters volume, which a gaseous mixture containing 96% of nitrogen and 4% of oxygen was bubbled through. The interval passing from the accomodation of the animals until the cessation of their respiratory movement was registered as survival time. Animals surviving a time of two times as long as that of the control group, were considered to be protected.
Ten animals each were intraperitoneally (i.p.) given a dose of 50 mg/kg of body-weight (hereinafter abbreviated: mg/kg) each of the substances 30 minutes before the accommodation in the glass cylinders. The average time of survival, the percentage of elongation of survival time in comparison to that of the control group and the percentage of the animals protected are shown in Table I.

Toxicity (LD50) on mice = settings: mouse, in vivo
Description: The toxicity of the active compound of Example 35a according to the invention was determined on mice.

mice [1] = assay: Asphyxial anoxia test; type: in vivo; settings: Mus musculus; oral, mice starved 16 hours, 1 hour after treatment; protected = survival longer by 30% than control; probit analysis
Description: (§1) The antihypoxic effect of the compounds according to the invention was proven also by using the methods of asphyxial anoxia and hypobaric hypoxia. These investigations were carried out by oral administration also proving the oral efficiency which makes possible use of the active compounds according to the invention in a tablet form.
Mice starved for 16 hours were orally treated with the compounds according to the invention and after one hour, they were placed into well-closed glass bottles of 100 ml volume. The interval passing from closing the bottle until the cessation of the respiratory movement was registered as survival time. Animals surviving longer by 30% than that of average survival time of the control group, were considered to be protected.
(§2) In the cases of both methods, the ED50 values, i.e. the dose protecting half of the treated animals from the hypoxia, were calculated by using probit analysis.

mice [2] = assay: Hypobaric hypoxia test; type: in vivo; settings: Mus musculus; oral, mice starved 16 hours, 170 Hgmm, 1 hour after treatment; protected = survival twice control; probit analysis
Description: as §1
Mice starved for 16 hours were orally treated with the compounds according to the invention, and placed into a desiccator one hour following the treatment. The pressure in the desiccator was reduced to 170 Hgmm within 20 seconds and the survival time was registered from this time until the cessation of respiratory movement. Animals surviving twice as long as the average survival time of the control group were considered to be protected.
as §2

Row | SMILES | Survival time (conscious mice) [min] | response vs control in vivo at 50 mg/kg (conscious mice) [%] | responders at 50 mg/kg (conscious mice) [%] | LD50 (Toxicity (LD50) on mice; intravenous, read-out: LD50 intravenously) [mg/kg] | LD50 (Toxicity (LD50) on mice; oral, read-out: LD50 orally) [mg/kg] | ED50 (mice [1]) [mg/kg] | ED50 (mice [2]) [mg/kg]
1 | O=C(CCN1CCSC1)c1cccc([N+](=O)[O-])c1 [Example 20] | 7.85 | 136 | 20 | – | – | – | –
2 | CC(CN1CCSC1)C(=O)c1ccccc1 (stereo not drawn) [Example 22] | 9.27 | 147 | 30 | – | – | – | –
3 | O=C(CCN1CCSC1)c1ccc(F)cc1 [Example 35a, 1-(4-fluorophenyl)-3-(3-thiazolidinyl)propan-1-one] | 10.75 | 186 | 60 | 108 | 646 | 18.3 | 58.7
4 | CSc1ccc(C(=O)CCN2CCSC2)cc1 [Example 34, 1-(4-methylthiophenyl)-3-(3-thiazolidinyl)propan-1-one] | 12.76 | 202 | 70 | – | – | – | –
5 | COc1ccc(C(=O)CCN2CCSC2)c(C)c1 [Example 12] | 10.28 | 178 | 40 | – | – | – | –
6 | O=C(CCN1CCSC1)c1ccc(Cl)c(Cl)c1 [Example 19] | 7.90 | 125 | 20 | – | – | – | –
7 | CC(CN1CCSC1)C(=O)c1cccs1 (stereo not drawn) [Example 41] | 8.91 | 154 | 20 | – | – | – | –
8 | O=C(CCN1CCSC1)c1cccs1 [Example 37, 1-(2-thienyl)-3-(3-thiazolidinyl)propan-1-one] | 12.22 | 211 | 60 | – | – | – | –
9 | CCc1ccc(C(=O)CCN2CCSC2)s1 [Example 38] | 9.95 | 172 | 30 | – | – | – | –
10 | O=C(CCN1CCSC1)c1ccc(Cl)cc1 [Example 17] | 11.00 | 174 | 60 | – | – | 55 | 60
11 | COc1ccc(C(=O)CCN2CCSC2)cc1 [Example 8] | 8.27 | 131 | 20 | – | – | – | –
12 | O=C(CCN1CCCSC1)c1ccc(-c2ccccc2)cc1 [Example 49] | 9.72 | 154 | 30 | – | – | – | –
13 | CC(CN1CCSC1)C(=O)c1ccc(Br)cc1 (stereo not drawn) [Example 30] | 8.40 | 145 | 40 | – | – | – | –
14 | O=C(CCN1CCSC1)c1ccc(Br)cc1 [Example 18] | 10.58 | 167 | 50 | – | – | – | –
15 | O=C(CCN1CCSC1)c1ccccc1 [Example 1, 1-phenyl-3-(thiazolidinyl)propan-1-one] | 9.35 | 148 | 30 | – | – | – | –
16 | CC(CN1CCSC1)C(=O)c1ccc(F)cc1 (stereo not drawn) [Example 27] | 5.32 | 174 | 20 | – | – | – | –
17 | O=C(CCN1CCSC1)c1ccc(Cl)s1 [Example 39] | 10.43 | 180 | 40 | – | – | – | –
18 | COC(=O)C1N(CCC(=O)c2ccc(F)cc2)CSC1(C)C (stereo not drawn) [Example 70] | 5.78 | 189 | 60 | – | – | – | –
